In PubChem BioAssay (NCI):
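Step 1: Grow cells in 96-well plates. Step 2: Expose to compound for 48 hours at 5 concentrations. Step 3: Interpolate endpoints linearly; if unreached, use highest concentration. GI50 = concentration required for 50% inhibition of growth. TGI: total growth inhibition.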

Experiments:
Experiment in all cases: NCI-60 cell line screen, 48 h
HS 578T breast = test system: HS 578T breast
NCI/ADR-RES ovarian = test system: NCI/ADR-RES ovarian
DU-145 prostate = test system: DU-145 prostate
UACC-62 melanoma = test system: UACC-62 melanoma
U251 CNS = test system: U251 CNS
OVCAR-3 ovarian = test system: OVCAR-3 ovarian
A498 renal = test system: A498 renal
MDA-MB-231 breast = test system: MDA-MB-231 breast
OVCAR-8 ovarian = test system: OVCAR-8 ovarian
RPMI-8226 leukemia = test system: RPMI-8226 leukemia
UACC-257 melanoma = test system: UACC-257 melanoma
MCF7 breast = test system: MCF7 breast
CAKI-1 renal = test system: CAKI-1 renal
UO-31 renal = test system: UO-31 renal
OVCAR-5 ovarian = test system: OVCAR-5 ovarian
SK-MEL-5 melanoma = test system: SK-MEL-5 melanoma
SR leukemia = test system: SR leukemia
MALME-3M melanoma = test system: MALME-3M melanoma
RXF 393 renal = test system: RXF 393 renal
CCRF-CEM leukemia = test system: CCRF-CEM leukemia
PC-3 prostate = test system: PC-3 prostate
NCI-H23 lung = test system: NCI-H23 lung
HCC-2998 colon = test system: HCC-2998 colon
IGROV1 ovarian = test system: IGROV1 ovarian
HOP-62 NSCLC = test system: HOP-62 NSCLC
A549 NSCLC = test system: A549 NSCLC
MOLT-4 leukemia = test system: MOLT-4 leukemia
SF-295 CNS = test system: SF-295 CNS

Which results are given for `COc1cccc(C#Cc2ccccc2C#CCCCCO)c1`?
GI50 (HS 578T breast): 22.9 µM; TGI (HS 578T breast): 56.9 µM; GI50 (NCI/ADR-RES ovarian): 5.44 µM; TGI (NCI/ADR-RES ovarian): 20 µM; GI50 (DU-145 prostate): 4.17 µM; TGI (DU-145 prostate): 18.9 µM; GI50 (UACC-62 melanoma): 5.7 µM; TGI (UACC-62 melanoma): 19.8 µM; GI50 (U251 CNS): 8.41 µM; TGI (U251 CNS): 22.3 µM; GI50 (OVCAR-3 ovarian): 10.7 µM; TGI (OVCAR-3 ovarian): 28.8 µM; GI50 (A498 renal): 10.3 µM; TGI (A498 renal): 23.8 µM; GI50 (MDA-MB-231 breast): 3.41 µM; TGI (MDA-MB-231 breast): 13.2 µM; GI50 (OVCAR-8 ovarian): 12.5 µM; TGI (OVCAR-8 ovarian): 27.9 µM; GI50 (RPMI-8226 leukemia): 3.77 µM; TGI (RPMI-8226 leukemia): 26.4 µM; GI50 (UACC-257 melanoma): 12.5 µM; TGI (UACC-257 melanoma): 25.4 µM; GI50 (MCF7 breast): 16.1 µM; TGI (MCF7 breast): 41.1 µM; GI50 (CAKI-1 renal): 6.49 µM; TGI (CAKI-1 renal): 19.9 µM; GI50 (UO-31 renal): 8.79 µM; TGI (UO-31 renal): 22.3 µM; GI50 (OVCAR-5 ovarian): 14.6 µM; TGI (OVCAR-5 ovarian): 29.3 µM; GI50 (SK-MEL-5 melanoma): 19.1 µM; TGI (SK-MEL-5 melanoma): 33.8 µM; GI50 (SR leukemia): 1950 nM; TGI (SR leukemia): 12.1 µM; GI50 (MALME-3M melanoma): 13.9 µM; TGI (MALME-3M melanoma): 37.9 µM; GI50 (RXF 393 renal): 1780 nM; TGI (RXF 393 renal): 9.89 µM; GI50 (CCRF-CEM leukemia): 3.5 µM; TGI (CCRF-CEM leukemia): 17.4 µM; GI50 (PC-3 prostate): 9.83 µM; TGI (PC-3 prostate): 23.7 µM; GI50 (NCI-H23 lung): 12.5 µM; TGI (NCI-H23 lung): 26.1 µM; GI50 (HCC-2998 colon): 5.95 µM; TGI (HCC-2998 colon): 19.4 µM; GI50 (IGROV1 ovarian): 10.3 µM; TGI (IGROV1 ovarian): 22.6 µM; GI50 (HOP-62 NSCLC): 15.5 µM; TGI (HOP-62 NSCLC): 34.3 µM; GI50 (A549 NSCLC): 4.21 µM; TGI (A549 NSCLC): 17.3 µM; GI50 (MOLT-4 leukemia): 3.82 µM; TGI (MOLT-4 leukemia): 53.1 µM; GI50 (SF-295 CNS): 7.94 µM; TGI (SF-295 CNS): 22.1 µM
